Measured values published in ChEMBL document CHEMBL1128555, “Derivatives of 5-[[1-(4'-carboxybenzyl)imidazolyl]methylidene]hydantoins as orally active angiotensin II receptor antagonists” (J Med Chem, 1995).
The source made the active and inactive calls. The calls are words filed in the database; no cut-off is given here.

Experiments:
[1] = tested on: Rattus norvegicus; assay: The compound was tested for antihypertensive activity in Renal Hypertensive Rats(RHR) at 10 mg/Kg dose after oral administration; assay type: functional
[2] = biological target: Angiotensin II receptor (AT-1) type-1 (Rattus norvegicus) (UniProt P29089+P25095); assay: Antihypertensive activity in renal hypertensive rats (RHR) at 30 mg/Kg dose after oral administration; assay type: functional, organism-based
[3] = biological target: Angiotensin II receptor type-1 (Oryctolagus cuniculus) (UniProt P34976); assay: Inhibition of angiotensin II induced contraction in rabbit aortic ring, activity is expressed as IC50
[4] = biological target: T1, Angiotensin II receptor (AT-1) type-1 (Rattus norvegicus, UniProt P29089+P25095); assay: Binding affinity expressed as IC50 to the Angiotensin II receptor, type 1, from rat liver membrane
T1 sequence (P29089 whole entry): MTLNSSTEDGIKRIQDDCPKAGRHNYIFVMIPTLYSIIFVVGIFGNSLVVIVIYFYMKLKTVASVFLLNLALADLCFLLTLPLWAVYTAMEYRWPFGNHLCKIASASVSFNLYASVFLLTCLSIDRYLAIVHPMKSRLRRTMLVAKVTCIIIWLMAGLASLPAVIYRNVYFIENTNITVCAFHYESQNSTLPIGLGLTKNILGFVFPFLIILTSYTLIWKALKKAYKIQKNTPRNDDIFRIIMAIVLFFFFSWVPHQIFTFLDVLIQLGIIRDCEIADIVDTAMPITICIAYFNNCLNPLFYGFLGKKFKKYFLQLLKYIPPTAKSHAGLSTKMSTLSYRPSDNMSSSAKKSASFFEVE
T1 sequence (P25095 whole entry): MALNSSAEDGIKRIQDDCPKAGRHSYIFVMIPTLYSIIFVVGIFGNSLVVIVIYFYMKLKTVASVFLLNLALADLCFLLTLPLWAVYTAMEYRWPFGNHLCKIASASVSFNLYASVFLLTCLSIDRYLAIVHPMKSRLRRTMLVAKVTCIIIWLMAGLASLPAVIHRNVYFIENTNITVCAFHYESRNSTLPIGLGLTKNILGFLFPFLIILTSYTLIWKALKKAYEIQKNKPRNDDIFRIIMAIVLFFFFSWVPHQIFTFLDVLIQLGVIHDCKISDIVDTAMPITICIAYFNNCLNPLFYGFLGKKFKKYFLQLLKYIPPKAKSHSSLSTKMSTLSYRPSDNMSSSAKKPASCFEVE

[5] = tested on: Rattus norvegicus; assay: The compound was tested for antihypertensive activity in Renal Hypertensive Rats(RHR) at following doses after oral administration. of 10 mg/kg; assay type: functional
[6] = tested on: Monkey; assay: Baseline blood pressure was determined at 10 mg/kg in salt-deplete Normotensive Monkeys; assay type: functional, Cercopithecidae
[7] = tested on: Monkey; assay: blood pressure determined at 10 mg/kg in salt-deplete Normotensive Monkeys; assay type: functional, Cercopithecidae
[8] = tested on: Monkey; assay: Minimum blood pressure was determined at 10 mg/kg in salt-deplete Normotensive Monkeys; assay type: functional, Cercopithecidae
[9] = tested on: Rattus norvegicus; assay: The compound was tested for antihypertensive activity in Renal Hypertensive Rats(RHR) at 30 mg/Kg dose after oral administration; inactive; assay type: functional, organism-based
[10] = tested on: Monkey; assay: Blood pressure determined at 10 mg/kg in salt-deplete Normotensive Monkeys; assay type: functional, Cercopithecidae

Chain of Angiotensin II receptor type-1 (Oryctolagus cuniculus) (P34976 whole entry, looked up): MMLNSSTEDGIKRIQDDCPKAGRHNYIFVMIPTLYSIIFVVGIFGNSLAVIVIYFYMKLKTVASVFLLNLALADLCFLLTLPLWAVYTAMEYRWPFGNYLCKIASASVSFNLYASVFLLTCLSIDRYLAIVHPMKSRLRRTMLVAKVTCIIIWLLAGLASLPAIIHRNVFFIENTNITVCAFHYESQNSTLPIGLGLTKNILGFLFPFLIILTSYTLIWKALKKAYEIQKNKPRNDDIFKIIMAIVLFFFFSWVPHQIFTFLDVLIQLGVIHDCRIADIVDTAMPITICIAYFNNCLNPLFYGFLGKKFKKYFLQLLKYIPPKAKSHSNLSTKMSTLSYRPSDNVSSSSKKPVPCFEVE

Row | Compound | IC50 [3] | IC50 [4] | Maximum blood pressure change [2] | also measured
1 | CCCCc1ncc(/C=C2/C(=O)N(CCCC)C(=O)N2Cc2csc(C)c2)n1Cc1ccc(C(=O)O)cc1 | 9.2 nM | 0.7 nM | -23% | Max [5]: -28%
2 | CCCCc1ncc(/C=C2\C(=O)NC(=O)N2CCCC)n1Cc1ccc(C(=O)O)cc1 | 44 nM | – | – | Max [9]: inactive
3 | CCCCc1ncc(/C=C2/C(=O)N(CCCC)C(=O)N2Cc2ccsc2)n1Cc1ccc(C(=O)O)cc1 | 10 nM | 0.9 nM | -42% | Max [5]: -28%
4 | CCCCc1ncc(/C=C2/C(=O)NC(=O)N2CCCC)n1Cc1ccc(-c2nn[nH]n2)cc1 | 40 nM | 7.1 nM | 0% | –
5 | CCCCc1ncc(/C=C2\C(=O)NC(=O)N2Cc2cccs2)n1Cc1ccc(C(=O)O)cc1 | – | 2.6 nM | – | Max [9]: inactive
6 | CCCCc1ncc(/C=C2/C(=O)N(CCCC)C(=O)N2Cc2csc(C)n2)n1Cc1ccc(C(=O)O)cc1Cl | – | – | – | Blood pressure [6]: 100 mmHg; Blood pressure [8]: 80 mmHg; Blood pressure [10]: 85 mmHg
7 | CCCCc1ncc(/C=C2/C(=O)NC(=O)N2Cc2cccs2)n1Cc1ccc(C(=O)O)cc1 | 18 nM | 2.3 nM | -21% | –
8 | CCCCc1ncc(/C=C2/C(=O)NC(=O)N2Cc2ccc(Cl)cc2)n1Cc1ccc(C(=O)O)cc1 | 28 nM | 3 nM | -17% | –
9 | CCCCc1ncc(/C=C2/C(=O)NC(=O)N2CCCC)n1Cc1ccc(NS(=O)(=O)C(F)(F)F)cc1 | 120 nM | 3.3 nM | -11% | –
10 | CCCCc1ncc(/C=C2/C(=O)N(CCCC)C(=O)N2Cc2cccs2)n1Cc1ccc(C(=O)O)cc1 | 13 nM | 0.7 nM | -28% | –
11 | CCCCc1ncc(/C=C2/C(=O)N(CCCC)C(=O)N2Cc2csc(N)n2)n1Cc1ccc(C(=O)O)cc1 | 2.9 nM | 0.6 nM | – | Max [2]: inactive
12 | CCCCCCN1C(=O)/C(=C/c2cnc(CCCC)n2Cc2ccc(C(=O)OC)cc2)N(Cc2csc(C)n2)C1=O | > 100 nM | 5.3 nM | -34% | –
13 | CCCCc1ncc(/C=C2/C(=O)N(CCCC)C(=O)N2Cc2csc(C)n2)n1Cc1ccc(C(=O)O)cc1 | 2.6 nM | 1.2 nM | -34% | –
14 | CCCCc1ncc(/C=C2/C(=O)N(CCCC)C(=O)N2Cc2cccs2)n1Cc1ccc(C(=O)OC)cc1 | 370 nM | 3.4 nM | -28% | –

The next lines start with results.

Row | IC50 [3] | IC50 [4] | Compound | Maximum blood pressure change [2] | also measured
15 | 14 nM | 1.3 nM | CCCCc1ncc(/C=C2/C(=O)N(CCCC)C(=O)N2CCCC)n1Cc1ccc(C(=O)O)cc1 | -45% | Max [1]: -21%
16 | 350 nM | 3.8 nM | CCCCc1ncc(/C=C2/C(=O)N(CCCC)C(=O)N2Cc2csc(C)n2)n1Cc1ccc(C(=O)OC)cc1 | -40% | Max [1]: -25%; Blood pressure [6]: 101 mmHg; Blood pressure [7]: 88 mmHg; Blood pressure [8]: 74 mmHg
17 | 21 nM | 1.5 nM | CCCCc1ncc(/C=C2/C(=O)N(CCCC)C(=O)N2Cc2cc(C)cs2)n1Cc1ccc(C(=O)O)cc1 | -16% | –
18 | 490 nM | 5.8 nM | CCCCc1ncc(/C=C2/C(=O)N(CCCC)C(=O)N2Cc2ccccn2)n1Cc1ccc(C(=O)OC)cc1 | -20% | –
19 | 5.3 nM | 0.6 nM | CCCCc1ncc(/C=C2/C(=O)N(CCCC)C(=O)N2Cc2ccc(C)s2)n1Cc1ccc(C(=O)O)cc1 | -22% | –
20 | 290 nM | 1.2 nM | CCCCc1ncc(/C=C2/C(=O)N(CCCC)C(=O)N2Cc2csc(N)n2)n1Cc1ccc(C(=O)OC)cc1 | -37% | Max [1]: -39%
21 | 30 nM | 3.5 nM | CCCCc1ncc(/C=C2/C(=O)NC(=O)N2CCCC)n1Cc1ccc(C(=O)OC)cc1 | -11% | –
